Laboratory results as given in patent US20070015279A1, “Methods of Selecting Pancreatic Endocrine Cells Using Protein Synthesis Inhibitors” (AmCyte Inc., priority 2005, published 2007).

System: HD487B cells
Assay: Puromycin selection of HD487B cells, insulin mRNA by quantitative RT-PCR
Type: cell-based, human
Method: In an attempt to see if other protein synthesis inhibitors have similar effect as hygromycin B on cultured pancreatic cells puromycin was used in a pilot experiment. We treated P0 cells from HD487B with puromycin at either 2.5 or 5 μg/mL concentrations in SM95/M7 (4:1) for overnight. The cells were recovered in the same medium without puromycin till reaching confluence and passaged to P1. P1 and P2 cells were cultured in SM95/M7 (9:1) with Wnt3a (20 ng/mL). P3 and P4 cells were cultured in SM95/M7 (4:1) with bFGF (50 ng/mL). P5 cells were cultured in maturation medium. We took portions of cells at each passages and analyzed insulin gene expression by quantitative RT-PCR and normalized to β-actin expression. Cells that survived puromycin treatment also expressed insulin at passages 1, 2, 3, 4, and 5.

COc1ccc(C[C@H](N)C(=O)N[C@H]2[C@@H](O)[C@H](n3cnc4c(N(C)C)ncnc43)O[C@@H]2CO)cc1 [puromycin]
Insulin expression (normalized to β-actin) (HD487B P1, 2.5 μg/mL @ P0): 3.96E−01 | Insulin expression (normalized to β-actin) (HD487B P1, 5 μg/mL @ P0): 8.48E−02 | Insulin expression (normalized to β-actin) (HD487B P2, 2.5 μg/mL @ P0): 1.39E−02 | Insulin expression (normalized to β-actin) (HD487B P2, 5 μg/mL @ P0): 2.51E−02 | Insulin expression (normalized to β-actin) (HD487B P3, 2.5 μg/mL @ P0): 9.89E−03 | Insulin expression (normalized to β-actin) (HD487B P3, 5 μg/mL @ P0): 2.63E−02 | Insulin expression (normalized to β-actin) (HD487B P4, 2.5 μg/mL @ P0): 3.46E−03 | Insulin expression (normalized to β-actin) (HD487B P5, 2.5 μg/mL @ P0): 1.83E−03
